Assay results taken from patent publication US10736912B2, “Compositions containing PUFA and/or uridine and methods of use thereof” (MASSACHUSETTS INSTITUE OF TECHNOLOGY, priority 2005, dated 2020).

Key:
SHSY-5Y cells = assay: 14C-choline incorporation into phospholipids in SHSY-5Y cells; type: cell-based, human; settings: for Phospholipid synthesis enhanced: 10 μM fatty acid, 18 hr, FIG. 3A
Description: SHSY-5Y cells were grown to near confluency in DMEM+10% FBS in 35 mm dishes. Cells were incubated for 18 hr in serum-free DMEM+1% FBS containing 30 μM choline+/−10 μM of DHA, arachidonic acid, or palmitic acid. Cells were then labeled, and labeled phospholipids were quantified as described for Example 1.
DHA was dissolved in ethanol to a […] concentration and frozen in 10 microliter aliquots at −80° C. For each experiment, one aliquot was diluted in ethanol to 10 micromolar; the volume giving the desired final solution in incubation medium was mixed with an equal volume of BSA solution (1 gm/ml).
The effect of omega-6 fatty acids on phospholipid synthesis was next examined in SHSY-5Y cells, a human neuroblastoma cell line. In this case, phospholipid synthesis was enhanced by arachidonic acid, an omega-6 fatty acid, but not by DHA or palmitic acid (FIG. 3A).
The effect of arachidonic acid on phospholipid synthesis in SHSY-5Y cells was further characterized as described for omega-3 fatty acids and PC-12 cells in Example 2.

[1] = test system: brain phospholipid levels; assay: Brain phospholipid levels in gerbils given UMP diet and/or PUFA by gavage; type: in vivo, gerbil; settings: for Brain phospholipid levels: Table 6
Description: (§1) Cells were homogenized in 100 volumes of ice-cold deionized water using a tissue degrader (Polytron PT 10-35, Kinematica AG, Switzerland); 1 ml of aliquots were then mixed with 3 ml of chloroform+methanol mixture (2:1 v/v) and vortexed vigorously for 30 seconds. After cooling for 1 h on ice, the mixture was mixed sequentially with 3 ml of chloroform+methanol mixture (2:1 v/v) and 1 ml of ice-cold deionized water. The mixture was vortexed vigorously and allowed to stand overnight in the cold room (18 h). The organic (lower) and aqueous (upper) phases of the mixtures were separated by centrifugation (10 min at 4° C.; 1000 g). An aliquot (2 ml) of the upper phase was used for determination of CDP-Choline (see below), and 0.1-0.4 ml aliquots of the lower phase were dried under vacuum for phospholipid analysis. Residues of 0.1 ml aliquots of the lower phase were assayed for total phospholipid content by measuring phosphorus. Residues of 0.4 ml aliquots of the lower phase were reconstituted in 40 μl methanol and subjected to thin-layer chromatography using silica G plates (Adsorbosil Plus-1®, Alltech), and a system consisting of chloroform/ethanol/triethylamine/water (30:34:30:8) as the mobile phase. Phospholipid standards were used to identify the corresponding bands under UV light after the plates were sprayed with 0.1% diphenylhexatriene in petroleum ether. Bands for individual phospholipid classes (PC, PE, SM, PS and PI) were scraped off the plates and extracted into 1 ml of methanol; dried under vacuum; and assayed for phosphorus content. Total phosphorus was determined by comparison with standard curves by using KH2PO4 run with each assay. To each sample was added 0.5 ml of 4.5% HclO4/27% H2SO4 and tubes were heated at 180° C. for 3 h. After cooling to room temperature, 5 ml of the color reagent (a 10:1 dilution of solutions containing 2.5 mg/ml ammonium molybdate, 8.2 mg/ml sodium acetate and 100 mg/ml ascorbic acid respectively) was added and the tubes were incubated for 2 h, 37° C. Absorbance was measured spectrophotometrically at 820 nm. Phospholipid mass was determined by multiplying the phosphorus content by 25.
Control standard diet (Table 4) consisted of Teklad Global 16% protein rodent diet (Harlan Teklad, Madison, Wis.), which contained 0.1% choline chloride (CC), corresponding to a daily dose of 50 mg/kg/day. UMP was provided as 0.5% UMP·2Na^+ weight/weight, added to the control diet, also prepared by Harlan Teklad, corresponding to 240 mg/kg/day UMP. DHA was administered as 300 mg/kg/day in 200 microliter (mcL)/day 5% Arabic Gum solution, while groups not receiving DHA were administered vehicle (5% Arabic Gum) alone. DHA was provided by Nu-Chek Prep (Elysian, Minn.) and UMP by Numico (Wagenigen, NL).
Gerbils were anesthetized with ketamine and xylazine (80 and 10 mg/kg bwt, i.p.) and sacrificed by immersing the head into liquid nitrogen for 2 min, followed by decapitation. Brains were immediately and quickly (30 seconds) removed using a bone rongeur and stored at −80° C.
Frozen brain hemispheres were weighed and homogenized in 100 volumes of ice-cold deionized water using a tissue degrader (Polytron PT 10-35, Kinematica AG, Switzerland), then analyzed as described in Example 1.
Protein in whole brain homogenate sample was measured for using bicinchoninic acid reagent (Perkin Elmer, Norwalk, Conn., USA). DNA was measured by measuring 460 nm emission of samples on a fluorometer in the presence of bisbenzimidizole, a fluorescent dye known as Hoechst H 33258 (American Hoechst Corporation), which has an excitation maximum at 356 nm and an emission maximum of 458 when bound to DNA.
Male gerbils weighing 80-100 g were divided into 4 groups of 8 gerbils and administered the supplements depicted in Table 1: […]

[2] = test system: brain phospholipid levels; assay: Brain phospholipid levels in rat pups of treated pregnant and nursing mothers; type: in vivo; settings: rat pups, postnatal day 20, mean
Description: In another study, pregnant rats were allowed to consume ad libitum, for 10 days before parturition and 20 days while nursing, either a choline-containing control diet or this diet supplemented with uridine as UMP; half of each group also received DHA or its diluent daily, by gavage. Pups were then sacrificed and brain slices were examined to determine numbers of hippocampal dendritic spines.
Pregnant and nursing rats were administered DHA and/or uridine as described in Example 9. At 20 days post-birth, rats were sacrificed and brain samples were obtained and assayed for phospholipids. Administration of DHA alone increased brain PC, PI, PE, and sphingomyelin (SM) per cell (DNA) by 36, 166, 38, and 78%, respectively. UMP markedly amplified the effects of DHA to 66, 210, 68, and 99% of control, respectively (Table 8). These increases were greater than those observed in adult animals. Similar results were obtained when normalizing to protein (Table 9). Thus, administration of DHA and/or uridine to pregnant and nursing mothers is able to increase phospholipid levels in the offspring.

brain CDP-choline levels = assay: Brain CDP-choline and CDP-ethanolamine levels in gerbils; type: in vivo, gerbil; settings: 28 days
Source text: FIGS. 5A and 5B. FIG. 5A illustrates the effect Effects of DHA on brain CDP-choline levels (FIG. 5A) and while FIG. 5B illustrates the effect of DHA on brain CDP-ethanolamine levels (FIG. 5B). Groups of 8 gerbils received either a control or a UMP-containing diet, and, by gavage, DHA (in a vehicle of 5% gum Arabic solution) or 5% gum Arabic solution alone for 28 days. On the 29th day brains were harvested and assayed for CDP-choline. Data are presented as means±SEM. Statistical analysis was performed using one- or two-way ANOVA followed by Tukey test. a: P<0.05 when compared with the values for control diet plus vehicle group; b: P<0.05 when compared with values for UMP diet plus vehicle group.
Aliquots (2 ml) of the upper (aqueous) phase were dried under a vacuum, reconstituted, and injected into an HPLC. The dried samples were reconstituted in 100-200 μl water and were analyzed by HPLC on an anion exchange column (Alltech Hypersil APS-2, […], 250×4.6 mm). CDP-choline was eluted with a linear gradient of buffers A (H3PO4, 1.75 mM, pH 2.9) and B (NaH2PO2, 500 mM, pH 4.5) from 0 to 100% B over period of 30 min. With this system, CDP-choline was resolved from closely co-eluting substances such as UMP in an isocratic system over a period of 40 min. The retention time for CDP-choline was 9.5 min. The column was washed with buffer B at the end of each experiment and every several days to remove retained nucleotides. Individual nucleotide peaks were detected by UV absorption at 280 nm and were identified by comparison with the positions of authentic standards, as well as by the addition of nucleotide standards to samples.
To determine the effect of PUFA administration on CDP-choline levels, brain CDP-choline levels were measured in the animals from the previous Example. Administration of DHA and/or UMP decreased CDP-choline levels (FIG. 5A) and CDP-ethanolamine levels (FIG. 5B). DHA reduced CDP-choline levels by 26% (compared with those receiving just the control diet and DHA's vehicle), and in UMP-treated gerbils by 21% (compared with those receiving UMP-containing diet and DHA's vehicle) (both P<0.05).

PC-12 cells = assay: 14C-choline incorporation into phospholipids in PC-12 cells; type: cell-based; settings: 5 μM fatty acid, 18 hr pre-incubation, then 14C-choline 2.5 hr; FIG. 1
Description: PC-12 cells were maintained in Dulbecco's modified Eagle's medium (DMEM)+10% fetal bovine serum (FBS). For experiments, cells were grown in quintuplicate collagen-coated 35 millimeter (mm) dishes. Cells were incubated for 18 hours (hr) in serum-free DMEM containing 28 μM choline+/−5 micromolar (μM) of DHA, oleic acid, or palmitic acid. Cells were then labeled for 2.5 hr with 0.5 microcurie (μCi)/ml ^14C-choline in serum-free DMEM containing 10-micromolar (μM) choline.
as §1, with “To each sample was added 0.5 ml of 4.5% HclO4/27% H2SO4 and tubes were heated at 180° C. for 3 h. After cooling to room temperature, 5 ml of the color reagent (a 10:1 dilution of solutions containing 2.5 mg/ml ammonium molybdate, 8.2 mg/ml sodium acetate and 100 mg/ml ascorbic acid respectively) was added and the tubes were incubated for 2 h, 37° C.” left out
In order to assess the effect of omega-3 fatty acids on phospholipid synthesis, PC-12 cells were incubated with ^14C-labeled choline, following an 18-hour pre-incubation with or without DHA. Incorporation of label into phospholipids was then measured. […]
To further characterize the stimulation of phospholipid synthesis by omega-3 fatty acids, PC-12 cells were pre-treated with different doses of DHA and exposed to labeled choline as described in Example 1, then incorporation of ^14C-label into phospholipids was measured. […]

[3] = Table 9, nmol per microgram DNA

CCCCCC=CCC=CCC=CCC=CCCCC(=O)O [AA, 5,8,11,14-eicosatetraenoic acid]
Phospholipid synthesis enhanced (SHSY-5Y cells): enhanced | Synthesis of total phospholipids, PC, and phosphatidylethanolamine (SHSY-5Y cells; range of dosages, FIG. 3B): increased | Brain phospholipid levels ([1]; 3 weeks): increased

CCC=CCC=CCC=CCC=CCC=CCCCC(=O)O [EPA, 5,8,11,14,17-eicosapentaenoic acid]
Brain phospholipid levels ([1]; 3 weeks): increased

O=c1ccn([C@@H]2O[C@H](COP(=O)(O)O)[C@@H](O)[C@H]2O)c(=O)[nH]1 [UMP, uridine monophosphate]
PC ([2]; Table 8, nmol per mg protein): 95.3 nmol/mg protein | PE ([2]; Table 8, nmol per mg protein): 75.6 nmol/mg protein | PI ([2]; Table 8, nmol per mg protein): 3.92 nmol/mg protein | SM ([2]; Table 8, nmol per mg protein): 5.27 nmol/mg protein | Total Phospholipids ([2]; Table 8, nmol per mg protein): 282.2 nmol/mg protein | PC [2, 3]: 8.11 nmol/microgram DNA | PE [2, 3]: 6.56 nmol/microgram DNA | PI [2, 3]: 0.352 nmol/microgram DNA | SM [2, 3]: 0.458 nmol/microgram DNA | Total Phospholipids [2, 3]: 24.78 nmol/microgram DNA | CDP-choline levels (FIG. 5A) (brain CDP-choline levels): decreased | CDP-ethanolamine levels (FIG. 5B) (brain CDP-choline levels): decreased | Effects on brain phospholipids after 1 week of treatment ([1]; 1 week): no significant effects | Increases in brain phospholipids ([1]; 3 weeks): smaller but still significant increases | Increase in levels of total phospholipids over control group ([1]; 4 weeks, gerbil brain): 5% | Total PtdCho ([1]; Table 5 part A): 171 ± 8 nmol/mg prt | Total PtdEtn ([1]; Table 5 part A): 84 ± 8 nmol/mg prt | Total PtdSer ([1]; Table 5 part A): 35 ± 3 nmol/mg prt | Total Ptdins ([1]; Table 5 part A): 31 ± 2 nmol/mg prt | Total PtdEtn ([1]; Table 5 part B, One Week): 63 ± 4 nmol/mg prt | Total PtdSer ([1]; Table 5 part B, One Week): 39 ± 1 nmol/mg prt | Total Ptdins ([1]; Table 5 part B, One Week): 20 ± 4 nmol/mg prt | Total PtdEtn ([1]; Table 5 part B, Three Weeks): 87 ± 4 nmol/mg prt | Total PtdSer ([1]; Table 5 part B, Three Weeks): 42 ± 2 nmol/mg prt | Total Ptdins ([1]; Table 5 part B, Three Weeks): 25 ± 1 nmol/mg prt

CCCCCCCC/C=C\CCCCCCCC(=O)O [oleic acid, reference compound]
Phosphatidylcholine (PC) synthesis significantly increased (incorporation of 14C label into PC) (PC-12 cells): not

CCCCCCCCCCCCCCCC(=O)O [palmitic acid, reference compound]
Phosphatidylcholine (PC) synthesis significantly increased (incorporation of 14C label into PC) (PC-12 cells): not | Phospholipid synthesis enhanced (SHSY-5Y cells): not
